Measurements: paper PMC5829162, “Rational Design, Synthesis and Biological Evaluation of Pyrimidine-4,6-diamine derivatives as Type-II inhibitors of FLT3 Selective Against c-KIT” (Scientific Reports, 2018)
Several values for one entry are separate records, joined by “and”; a condition that tells them apart may be missing. Equal values may be shown once.

Legend:
[1] = target: T1, FLT3 kinase (Homo sapiens, UniProt P36888); assay: Biochemical enzyme inhibition assay (microfluidics, Caliper EZ Reader II), FLT3; details: for IC50: in vitro kinase assay, 60 min pre-incubation, ATP 190 µM, three independent experiments, read-out: FLT3 IC50 (nM) ± SD; for LE: ligand efficiency for FLT3 inhibition
T1 construct: purchased Invitrogen
T1 sequence (P36888 27-993): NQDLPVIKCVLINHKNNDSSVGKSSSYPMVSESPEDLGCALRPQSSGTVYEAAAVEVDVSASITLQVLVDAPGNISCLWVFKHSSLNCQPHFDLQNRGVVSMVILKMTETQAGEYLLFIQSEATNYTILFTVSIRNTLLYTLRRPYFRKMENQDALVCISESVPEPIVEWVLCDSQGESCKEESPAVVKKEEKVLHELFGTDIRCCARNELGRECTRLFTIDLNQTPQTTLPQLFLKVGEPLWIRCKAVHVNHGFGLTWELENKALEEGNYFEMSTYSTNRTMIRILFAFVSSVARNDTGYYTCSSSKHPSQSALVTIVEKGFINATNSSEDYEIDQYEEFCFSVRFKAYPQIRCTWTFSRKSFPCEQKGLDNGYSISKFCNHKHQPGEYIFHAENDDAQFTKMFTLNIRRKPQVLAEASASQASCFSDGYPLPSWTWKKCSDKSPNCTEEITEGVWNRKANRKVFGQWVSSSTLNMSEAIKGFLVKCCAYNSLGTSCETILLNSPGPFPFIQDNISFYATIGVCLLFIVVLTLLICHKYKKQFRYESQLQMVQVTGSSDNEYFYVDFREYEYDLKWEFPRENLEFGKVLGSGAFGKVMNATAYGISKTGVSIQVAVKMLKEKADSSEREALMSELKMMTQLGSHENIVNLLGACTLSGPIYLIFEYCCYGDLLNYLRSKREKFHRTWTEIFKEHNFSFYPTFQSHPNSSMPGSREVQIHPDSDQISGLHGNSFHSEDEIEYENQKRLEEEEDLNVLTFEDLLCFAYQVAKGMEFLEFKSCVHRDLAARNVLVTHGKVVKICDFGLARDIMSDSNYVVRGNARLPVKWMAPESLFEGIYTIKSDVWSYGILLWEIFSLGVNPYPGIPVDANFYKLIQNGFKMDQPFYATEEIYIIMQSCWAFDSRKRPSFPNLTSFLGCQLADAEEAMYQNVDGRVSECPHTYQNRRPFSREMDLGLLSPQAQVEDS
Experimental: Kinase activity was measured in a microfluidics assay that monitors the separation of a phosphorylated product from substrate[31],[32]. […] After, 1 μL was transferred into a 384-well polypropylene assay plate (Greiner, Frickenhausen, Germany). The FLT3 enzyme (Invitrogen™, Grand Island, USA) was diluted in kinase buffer to a concentration of 2 nM and 5 µL of the enzyme mixture was transferred to the assay plate. The inhibitors/FLT3 enzyme were incubated for 60 minutes with minor shaking. […] For positive control, no inhibitor was added. For negative control, no enzyme was added. For running control, quizartinib was utilized. The plate was run until 10–20% conversion based on the positive control wells. The following separation conditions were utilized: upstream voltage −500V; downstream voltage, −1900V; chip pressure −0.8. Percent inhibition was measured for each well comparing starting peptide to phosphorylated product peaks relative to the baseline. Dose response curves, spanning the IC50 dose, were generated in GraphPad Prisim 6 and fit to an exponential one-phase decay line and IC50 values were obtained from the half-life value of the curve. IC50 values were generated in duplicate and error was calculated from the standard deviation between values.
S10. Biochemical Inhibition Assay:1,2 Kinase activity was measured in a microfluidics assay that monitors the separation of a phosphorylated product from substrate. The assay was run using a 12-sipper chip on a Caliper EZ Reader II (PerkinElmer®, Walthman, USA) with separation […]
Walthman, USA]). In 96-well polypropylene plates (Greiner, Frickenhausen, Germany) […]
After, 1 μL was transferred into a 384-well polypropylene assay plate (Greiner, Frickenhausen, Germany). The FLT3 enzyme (Invitrogen™, Grand Island, USA) was diluted in kinase buffer to a concentration of 2 nM and 5 µL of the enzyme mixture was transferred to the assay plate. The inhibitors/FLT3 enzyme were incubated for 60 minutes with minor shaking. A substrate mix was prepared containing ATP (Ambresco®, Solon, USA) and […]
USA) dissolved in kinase buffer, and 5 µL of the substrate mix was added to the assay plate.
For positive control, no inhibitor was added. For negative control, no enzyme was added. For running control, quizartinib was utilized. The plate was run until 10-20% conversion based on the positive control wells. The following separation conditions were utilized: upstream voltage -500V; downstream voltage, -1900V; chip pressure - 0.8. Percent inhibition was measured for each well comparing starting peptide to phosphorylated product peaks relative to the baseline. Dose response curves, spanning the IC50 dose, were generated in GraphPad Prisim 6 and fit to an exponential one-phase decay line and IC50 values were obtained from the half-life value of the curve. IC50 values were generated in duplicate and error was calculated from the standard deviation between values. […]

Molecule	IC50 [1]	LE [1]	melting point [°C]	fold less active than 13a on FLT3 ([1]; enzymatic FLT3 IC50 compared with 13a) [fold]
CS(=O)(=O)c1ccc(Nc2cc(Oc3ccc(CC(=O)Nc4cccc(F)c4)cc3)ncn2)cc1 [13aa, 2-(4-(6-(4-(Methylsulfonyl)phenylamino)pyrimidin-4-yloxy)phenyl)-N-(3-fluorophenyl)acetamide]	7878 ± 29 nM	0.20	228 to 230	–
O=C(Cc1ccc(Nc2cc(NCCCN3CCCC3)ncn2)cc1)Nc1cccc(C(F)(F)F)c1 [13ab, 2-(4-(6-(3-(Pyrrolidin-1-yl)propylamino)pyrimidin-4-ylamino)phenyl)-N-(3-(trifluoromethyl)phenyl)acetamide]	9170 ± 236 nM	0.19	–	–
CS(=O)(=O)c1ccc(Nc2cc(Nc3ccc(CC(=O)Nc4cccc(F)c4)cc3)ncn2)cc1 [13ac, 2-(4-(6-(4-(Methylsulfonyl)phenylamino)pyrimidin-4-ylamino)phenyl)-N-(3-fluorophenyl)acetamide]	11710 ± 106 nM	0.19	–	–
CNc1cc(Oc2ccc(CC(=O)Nc3ccc(F)cc3)cc2)ncn1 [13ad, 2-(4-(6-(Methylamino)pyrimidin-4-yloxy)phenyl)-N-(4-fluorophenyl)acetamide]	12800 ± 834 nM	0.26	124 to 126	–
O=C(Cc1ccc(Nc2cc(Nc3cccc(C(F)(F)F)c3)ncn2)cc1)NC1CC1 [13af, 2-(4-(6-(3-(Trifluoromethyl)phenylamino)pyrimidin-4-ylamino)phenyl)-N-cyclopropylacetamide]	8060 ± 274 nM	0.23	–	–
CN1CCN(c2cc(Nc3ccc(CC(=O)NC4CC4)cc3)ncn2)CC1 [13ah, 2-(4-(6-(4-Methylpiperazin-1-yl)pyrimidin-4-ylamino)phenyl)-N-cyclopropyl acetamide]	13560 ± 102 nM	0.25	–	–
O=C(Cc1ccc(Nc2cc(N3CCOCC3)ncn2)cc1)NC1CC1 [13ai, 2-(4-(6-Morpholinopyrimidin-4-ylamino)phenyl)-N-cyclopropylacetamide]	15100 ± 168 nM	0.25	110 to 112	–
CCCCNc1cc(Oc2ccc(CC(=O)Nc3nc(C(C)(C)C)cs3)cc2)ncn1 [13aj, 2-(4-(6-(Butylamino)pyrimidin-4-yloxy)phenyl)-N-(4-tert-butylthiazol-2-yl)acetamide]	7580 ± 132 nM	0.23	102 to 104	–
COc1ccc(CNC(=O)Cc2ccc(Oc3cc(NC4CCN(Cc5ccccc5)CC4)ncn3)cc2)c(OC)c1 [13ak, N-(2,4-Dimethoxybenzyl)-2-(4-(6-(1-benzylpiperidin-4-ylamino)pyrimidin-4-yloxy)phenyl)acetamide]	13600 ± 494 nM	0.16	102 to 104	–
CC(C)(C)c1cc(NC(=O)Cc2ccc(Oc3cc(Nc4cccc(C(F)(F)F)c4)ncn3)cc2)no1 [13l, 2-(4-(6-(3-(Trifluoromethyl)phenylamino)pyrimidin-4-yloxy)phenyl)-N-(5-tert-butylisoxazol-3-yl)acetamide]	567 nM and 568 nM	0.23	120 to 122	–
N-(4-Fluorobenzyl)-2-(4-(6-(3-(pyrrolidin-1-yl)propylamino)pyrimidin-4-yloxy)phenyl)acetamide [13w]	4560 ± 330 nM	0.21	–	–

Continued, values first:

IC50 [1]	LE [1]	melting point [°C]	fold less active than 13a on FLT3 ([1]; enzymatic FLT3 IC50 compared with 13a) [fold]	Molecule
5550 ± 169 nM	0.23	110 to 112	–	CS(=O)(=O)c1ccc(Nc2cc(Nc3ccc(CC(=O)NC4CC4)cc3)ncn2)cc1 [13ae, 2-(4-(6-(4-(Methylsulfonyl)phenylamino)pyrimidin-4-ylamino)phenyl)-N-cyclopropylacetamide]
129.3 ± 0.9 nM	0.26	–	–	Cn1nc(C(C)(C)C)cc1NC(=O)Cc1ccc(Nc2cc(NCCCN3CCCCC3)ncn2)cc1 [13c, 2-(4-(6-(3-(Piperidin-1-yl)propylamino)pyrimidin-4-ylamino)phenyl)-N-(3-tert-butyl-1-methyl-1H-pyrazol-5-yl)acetamide]
268 ± 25 nM	0.24	–	–	Cn1nc(C(C)(C)C)cc1NC(=O)Cc1ccc(Oc2cc(Nc3ccc(S(C)(=O)=O)cc3)ncn2)cc1 [13e, 2-(4-(6-(4-(Methylsulfonyl)phenylamino)pyrimidin-4-yloxy)phenyl)-N-(3-tert-butyl-1-methyl-1H-pyrazol-5-yl)acetamide]
961 ± 33.7 nM	0.22	140 to 142	–	Cn1nc(C(C)(C)C)cc1NC(=O)Cc1ccc(Oc2cc(Nc3cccc(C(F)(F)F)c3)ncn2)cc1 [13f, 2-(4-(6-(3-(Trifluoromethyl)phenylamino)pyrimidin-4-yloxy)phenyl)-N-(3-tert-butyl-1-methyl-1H-pyrazol-5-yl)acetamide]
3230 ± 556 nM	0.17	168 to 170	–	CC(C)(C)c1cc(NC(=O)Cc2ccc(Nc3cc(Nc4ccc(S(C)(=O)=O)cc4)ncn3)cc2)n(-c2ccc(F)cc2)n1 [13g, 2-(4-(6-(4-(Methylsulfonyl)phenylamino)pyrimidin-4-ylamino)phenyl)-N-(3-tert-butyl-1-(4-fluorophenyl)-1H-pyrazol-5-yl)acetamide]
4840 ± 170 nM	0.16	155 to 157	–	Cc1ccc(-n2nc(C(C)(C)C)cc2NC(=O)Cc2ccc(Nc3cc(Nc4ccc(S(C)(=O)=O)cc4)ncn3)cc2)cc1 [13h, 2-(4-(6-(4-(Methylsulfonyl)phenylamino)pyrimidin-4-ylamino)phenyl)-N-(3-tert-butyl-1-p-tolyl-1H-pyrazol-5-yl)acetamide]
428 ± 99 nM	0.27	–	–	Cn1nc(C(C)(C)C)cc1NC(=O)Cc1ccc(Nc2cc(N3CCOCC3)ncn2)cc1 [13i, 2-(4-(6-Morpholinopyrimidin-4-ylamino)phenyl)-N-(3-tert-butyl-1-methyl-1H-pyrazol-5-yl)acetamide]
6020 ± 122 nM	0.18	110 to 112	–	CN1CCN(c2cc(Nc3ccc(CC(=O)Nc4cc(C(C)(C)C)nn4-c4ccc(Br)cc4)cc3)ncn2)CC1 [13j, 2-(4-(6-(4-Methylpiperazin-1-yl)pyrimidin-4-ylamino)phenyl)-N-(3-tert-butyl-1-(4-bromophenyl)-1H-pyrazol-5-yl)acetamide]
6460 ± 251 nM	0.19	–	–	O=C(Cc1ccc(Nc2cc(NCCCN3CCCCC3)ncn2)cc1)Nc1ccc(OC(F)(F)F)cc1 [13y, 2-(4-(6-(3-(Piperidin-1-yl)propylamino)pyrimidin-4-ylamino)phenyl)-N-(4-(trifluoromethoxy)phenyl)acetamide]
5720 nM	–	–	> 100	Cn1nc(C(C)(C)C)cc1NC(=O)Cc1ccc(Nc2cccc(Nc3ccc(S(C)(=O)=O)cc3)n2)cc1 [compound 18, 2-(4-(6-(4-(Methylsulfonyl)phenylamino)pyridin-2-ylamino)phenyl)-N-(3-tert-butyl-1-methyl-1H-pyrazol-5-yl)acetamide]
